Measurements reported in patent US6627657B1 (priority 2000, dated 2003).
Where two headings read alike, the source gives them in different places.

Tested on: Zygosaccharomyces bailii ATCC 60483
Format: cell-based
Conditions: 30 seconds
Method: The rate at which a composition of the invention killed a test organism was measured by inoculating use solutions with a test organism and then quantifying survivors after various exposure times. Ninety-nine mL of each use solution was transferred to a 250 mL Erlenmeyer flask and allowed to equilibrate to test temperature. The liquid in the flask was swirled vigorously in a rapid circular motion and 1 mL of a suspension of the test organism was added.
After the exposure time, 1 mL quantities of the use solution/test organism mixture were transferred to 9 mL of the use-solution neutralizer. One mL quantities of the neutralizer were pour-plated using the plating medium. Serial 10-fold or 100-fold dilutions of the neutralizer solution were also plated. Plates were incubated and then surviving microorganisms were counted. The Log10 reduction of the test organism due to the use solution was determined by comparing reduction to an untreated control set (referred to as the Inoculum Numbers).
The test method was carried out as described in Example 5.
To determine the antifungal activity of hydrogen peroxide and peroxyacetic independently and in combination with a quaternary ammonium compound, the following experimental perimeters were used. The test organism studied was Zygosaccharomyces bailii ATCC 60483.
The test temperature used was 25° C., and the exposure time was 30 seconds. The use-solution neutralizer used was 1% sodium thiosulfate/1% peptone/0.025% catalase (for POAA, H2O2), Chambers neutralizer (for quaternary ammonium compound), and 1:1 mixture of the above (for POAA/H2O2/quaternary ammonium compound).
The microorganisms were plated on Sabourad dextrose agar and incubated for 4 days at 26° C.

| Compound | Log Reduction (20 ppm, pH 3, 25° C.) | Survivors (20 ppm, pH 3, 25° C.) | Log Reduction (20 ppm, pH 5, 25° C.) | Survivors (20 ppm, pH 5, 25° C.) | Log Reduction (20 ppm, pH 7, 25° C.) | Survivors (20 ppm, pH 7, 25° C.) | Log Reduction (20 ppm, pH 9, 25° C.) | Survivors (20 ppm, pH 9, 25° C.) | Log Reduction (20 ppm, pH 11, 25° C.) | Survivors (20 ppm, pH 11, 25° C.) | Log Reduction (532 ppm, pH 3, 25° C.) | Survivors (532 ppm, pH 3, 25° C.) | Log Reduction (532 ppm, pH 5, 25° C.) | Survivors (532 ppm, pH 5, 25° C.) | Log Reduction (532 ppm, pH 7, 25° C.) | Survivors (532 ppm, pH 7, 25° C.) | Log Reduction (532 ppm, pH 9, 25° C.) | Survivors (532 ppm, pH 9, 25° C.) | Log Reduction (532 ppm, pH 11, 25° C.) | Survivors (532 ppm, pH 11, 25° C.) |
| --- | --- | --- | --- | --- | --- | --- | --- | --- | --- | --- | --- | --- | --- | --- | --- | --- | --- | --- | --- | --- |
| CCCCCCCCCC[N+](C)(C)CCCCCCCCCC.[Cl-] [Didecyl Dimethyl Ammonium Chloride] | 0.00 | 9.4 × 10^6 cfu/ml | 0.02 | 7.1 × 10^6 cfu/ml | 0.05 | 6.6 × 10^6 cfu/ml | 0.18 | 4.9 × 10^6 cfu/ml | 1.69 | 1.5 × 10^5 cfu/ml | – | – | – | – | – | – | – | – | – | – |
| OO [Hydrogen Peroxide] | – | – | – | – | – | – | – | – | – | – | 0.00 | 7.5 × 10^6 cfu/ml | 0.00 | 9.9 × 10^6 cfu/ml | 0.00 | 7.9 × 10^6 cfu/ml | 0.04 | 6.8 × 10^6 cfu/ml | 0.06 | 6.5 × 10^6 cfu/ml |
